In patent US20210161997A1, “TREATING DISEASES VIA TARGETED MODULATION OF GENE SIGNALING NETWORKS” (Camp4 Therapeutics Corporation, priority 2018, published 2021):

Columns and labels:
SERPINC1 = assay: RNA-seq of SERPINC1 expression in compound-treated primary human hepatocytes; format: cell-based; conditions: significance FPKM ≥1, log 2(fold change) ≥0.5, q-value ≤0.05
Description: Human hepatocytes were obtained from two donors from Massachusetts General Hospital, namely MGH54 and MGH63, and one donor from Lonza, namely HUM4111B. Cryopreserved hepatocytes were cultured in plating media for 16 hours, transferred to maintenance media for 4 hours. Cultured on serum-free media for 2 hours, then a compound was added. The hepatocytes were maintained on the serum-free media for 16 hours prior to gene expression analysis. Primary human hepatocytes were stored in the vapor phase of a liquid nitrogen freezer (about -130° C.). Human hepatocytes cultured as described above were plated in 24-well format, adding 375,000 cells per well in a volume of 500 ul plating medium. Four hours before treatment, cells were washed with PBS and the medium was changed to either: fresh maintenance medium (complete) or modified maintenance medium. Compound stocks were prepared at 1000× final concentration and added in a 2-step dilution to the medium to reduce risk of a compound precipitating out of solution when added to the cells, and to ensure reasonable pipetting volumes. […] The plate was mixed by carefully swirling and after all wells were treated and returned to the incubator overnight. If desired, separate plates/wells were treated with vehicle-only controls and/or positive controls. If using multi-well plates, controls were included on each plate. After about 18 hours, cells were harvested for further analysis, e.g., ChIP-seq, RNA-seq, ATAC-seq, etc. This protocol is a modified version of the following protocols: MagMAX mirVana Total RNA Isolation Kit User Guide (Applied Biosystems #MAN0011131 Rev B.0), NEBNext Poly(A) mRNA Magnetic Isolation Module ([…]), and NEBNext Ultra Directional RNA Library Prep Kit for Illumina ([…]) (New England Biosystems #E74901). […] Two hundred μl of Lysis Binding Mix was used per well of the multiwell plate containing adherent cells (usually a 24-well plate). For mRNA isolation and library prep, the NEBNext Poly(A) mRNA Magnetic Isolation Module and Directional Prep kit was used. RNA isolated from cells above was quantified, and prepared in […] of each sample in 50 μl of nuclease-free water. This protocol may be run in microfuge tubes or in a 96-well plate. […] Genomic alignments were converted to transcriptome alignments based on reference transcript annotations from the Human GENCODE Gene Set release 24 (Harrow et al., Genome Res. […] Using unique and multimapped transcriptomic alignments, gene-level abundance estimates were computed using RSEM version 1.3.0 (Li and Dewey, BMC Bioinformatics (2011) 12:323) in a strand-aware manner, and including confidence interval sampling calculations, to arrive at posterior mean estimates (PME) of abundances (counts and normalized FPKM-fragments per kilobase of exon per million mapped fragments) from the underlying Bayesian model. Standard QC were applied (read integrity, mapping statistics, library complexity, fragment bias) to remove unsatisfactory samples. Differential gene expression was computed using the negative binomial model implemented by DESeq2 version 1.16.1 (Love et al., Genome Biol. (2014) 15(12):550). […] RNA-seq signals were also normalized by read depth and visualized using the UCSC browser. To identify small molecules that modulate target gene expression, primary human hepatocytes were prepared as a monoculture, and at least one small molecule compound was applied to the cells. RNA-seq was performed to determine the effects of the compounds on the expression of the target genes in hepatocytes. Fold change was calculated by dividing the level of expression in the cell system that had been perturbed by the level of expression in an unperturbed system.

NOTCH2 = assay: RNA-seq of NOTCH2 expression in compound-treated primary human hepatocytes; format: cell-based; conditions: primary human hepatocytes
Method in brief: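 Cryopreserved primary human hepatocytes from three donors, switched to serum-free medium 2 h before compound addition, were harvested about 18 h after treatment. Poly(A) mRNA was sequenced and aligned to GENCODE release 24, with DESeq2 negative binomial differential expression. Fold change is the treated level over the unperturbed level.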

Structure (SMILES)	SERPINC1 Fold Change (Log2) (SERPINC1)	NOTCH2 Fold Change (Log2) (NOTCH2)
S=C(NCc1ccc2c(c1)OCO2)N1CCN(c2ncnc3c2oc2ccccc23)CC1 [Amuvatinib]	1.33	−0.79
O=C1CCC(N2C(=O)c3ccccc3C2=O)C(=O)N1 (stereo not shown) [Thalidomide]	0.88	−0.68
